For 4 molecules, IC50 results are on record in BindingDB's records for patent US9695132 (Celgene CAR LLC, 2017).

The target of assay [1] is T1, Fibroblast growth factor receptor 4 (Homo sapiens, UniProt P22455). In words: Omnia Assay. Conditions: pH 7.5.
Assay [2] has as its target T1, Fibroblast growth factor receptor 4. In words: Omnia Assay. Conditions: pH 7.5. On the procedure: Omnia Assay Protocol for Potency Assessment Against FGFR 4 Enzyme. a) [FGFR4-WT]=10 nM, [ATP]=300 uM, [Y10-Sox]=10 uM (ATP KMapp 300 uM): A 10x stock solution of FGFR4-WT (PR4380C), (from Invitrogen, Carlsbad, Calif.) corresponding to method a in Table 7, was prepared as described below. Alternatively, a 10x stock solution of FGFR4-WT (F01-11G), (SignalChem, Richmond, BC) corresponding to method b in Table 7, was prepared as described below. A solution of 1.4xATP (AS001A) and 5x Tyr-Sox conjugated peptide substrate (KNZ3101) were prepared in 1x kinase reaction buffer consisting of 20 mM Tris, pH 7.5, 5 mM MgCl2, 1 mM EGTA, 5 mM β-glycerophosphate, 5% glycerol (10x stock, KB002A) and 0.2 mM DTT (DS001A). […] The serially diluted compounds were prepared on a Tecan EVO100. A second addition of 10 ul of Tyr-Sox FGFR4 substrate was added to each well and the kinase reactions were started with the addition of 35 uL of 1.4xATP. The reactions were monitored every 71 seconds for 240 minutes at λex360/λem485 in a Synergy plate reader from BioTek (Winooski, Vt.).
The source holds these as a separate data set.

T1 sequence (P22455 whole entry): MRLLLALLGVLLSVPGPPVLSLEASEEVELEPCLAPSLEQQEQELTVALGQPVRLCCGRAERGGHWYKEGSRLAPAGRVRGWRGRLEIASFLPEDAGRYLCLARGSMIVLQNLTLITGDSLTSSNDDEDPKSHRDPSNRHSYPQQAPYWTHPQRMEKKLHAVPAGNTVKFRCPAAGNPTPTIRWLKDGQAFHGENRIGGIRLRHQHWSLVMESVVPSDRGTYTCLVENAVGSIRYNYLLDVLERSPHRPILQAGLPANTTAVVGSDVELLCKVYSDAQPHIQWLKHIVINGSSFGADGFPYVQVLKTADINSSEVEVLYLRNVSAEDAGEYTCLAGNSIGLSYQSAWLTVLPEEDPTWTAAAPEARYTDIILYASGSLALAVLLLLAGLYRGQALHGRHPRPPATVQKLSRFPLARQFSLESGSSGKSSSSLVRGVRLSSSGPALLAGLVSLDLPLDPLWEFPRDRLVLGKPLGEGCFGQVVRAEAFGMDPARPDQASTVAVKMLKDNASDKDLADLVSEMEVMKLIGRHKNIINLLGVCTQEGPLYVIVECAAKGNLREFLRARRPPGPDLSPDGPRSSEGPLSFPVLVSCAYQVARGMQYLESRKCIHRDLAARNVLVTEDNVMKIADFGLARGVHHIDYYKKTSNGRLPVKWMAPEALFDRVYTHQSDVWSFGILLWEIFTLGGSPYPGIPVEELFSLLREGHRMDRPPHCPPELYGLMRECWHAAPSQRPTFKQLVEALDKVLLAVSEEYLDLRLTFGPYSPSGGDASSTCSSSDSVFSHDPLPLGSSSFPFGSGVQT

As usually defined, the IC50 is the concentration that gives 50% inhibition. In the case of `C=CC(=O)Nc1cccc(Nc2ncc3c(n2)N(Cc2cccc(NC(=O)CC)c2)C(=O)C(c2c(Cl)c(OC)cc(OC)c2Cl)C3)c1` (centres undefined) [US9695132, I-232], the IC50 in assay [1] is under 100 nM.

`C=CC(=O)Nc1ccc(Nc2ncc3c(n2)N(Cc2cccc(NC(=O)CC)c2)C(=O)C(c2c(Cl)c(OC)cc(OC)c2Cl)C3)cc1` (centres undefined) [US9695132, I-233] gave an IC50 in assay [1] of under 100 nM.

As for `C=CC(=O)Nc1cc(N2CCC(C(=O)OC(C)(C)C)CC2)ccc1Nc1ncc2c(n1)N(C)C(=O)N(c1c(Cl)c(OC)cc(OC)c1Cl)C2` [US9695132, I-62], in assay [2], the IC50 is under 100 nM.

`C=CC(=O)NC1COCC1Nc1ncc2c(n1)N(Cc1c[nH]cn1)C(=O)N(c1c(Cl)c(OC)cc(OC)c1Cl)C2` (centres undefined) [US9695132, I-214]: the IC50 in assay [2] was under 100 nM.
